What was measured:
[1] = Affinity to 2-aminopurine labeled hairpin A-site 16S rRNA by Electrospray ionization mass spectrometry
[2] = Affinity to hairpin A-site 16S rRNA by Electrospray ionization mass spectrometry

In the case of `NC[C@@H]1O[C@H](O[C@H]2[C@@H](O)[C@H](O[C@@H]3[C@@H](O)[C@H](N)C[C@H](N)[C@H]3O[C@H]3O[C@H](CO)[C@@H](O)[C@H](O)[C@H]3N)O[C@@H]2CO)[C@H](N)[C@@H](O)[C@@H]1O` [PAROMOMYCIN], the Kd [1] is reported as 0.98 µM and the Kd [2] is reported as 0.37 µM.
